Source: patent US10947216B2, “Amide compounds and method for making and using” (Rigel Pharmaceuticals, Inc., priority 2016, dated 2021)
Counter-ions that a name gives are not always drawn.

Legend:
[1] = test system: IL-23p19; test: LPS Induced IL23p19 in THP-1 Cells (with IFNγ Primed) Assay; format: cell-based, human; conditions: Homo sapiens, THP-1, THP-1 cells, IFNγ (50 ng/mL) primed, 1 hour compound pre-incubation, LPS 1 ug/mL 18 hours, 10 pt; read-out: IL23-p19 ELISA, THP1-IFNy, LPS, 10 pt EC50
Outline: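 THP-1 cells (50K/well) primed ~18 h with IFNγ (50 ng/mL) in RPMI/10% FBS, then incubated with compound in duplicate for 18 h at 37° C. Supernatant IL-23p19 measured by chemiluminescent sandwich ELISA, giving EC50 by curve fitting. Toxicity assessed in parallel on the remaining cells by Cell Titer Glo.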

[2] = test system: IL-23 (p19/p40); test: IL23-p19 ELISA, dendritic cells (DC differentiated from human PBMC, IFNγ primed), LPS stimulated; format: cell-based; conditions: Dendritic cell, human PBMC-derived dendritic cells, 1 h compound pre-incubation, LPS 1 μg/ml 18 hours, 10 pt
Experimental: Compound Screening Using DC Cells
I. Differentiation of PBMC's to DC Cells:
After 2 hours, the media including floating cells was aspirated out carefully and 12 ml of fresh RPMI media (10% FBS) containing GMCSF (100 ng/ml) and IL4 (20 ng/ml) was added, and the flask was kept in a 37° C. incubator for 7 days.
After 3 days, fresh GMCSF (100 ng/ml) and IL4 (20 ng/ml) were added to the flask and the incubation continued. After 7 days, the fully differentiated cells were harvested by spinning down (1200 rpm/5 min) and aspirating the media. The cells were suspended in fresh RPMI media (10% FBS) containing 50 ng/ml IFNγ (1000 U/ml) and then plated (50K/well in 100 μl) onto a white clear bottom 96 well plate and left in a 37° C. incubator for 24 hours.
II. Addition of Compounds:
After 24 hours incubation, 100 μl of RPMI media was added containing 2× concentrated test compound per well to the above cell-culture media (final concentration becomes 1×) and the plates were pre-incubated for 1 hour at 37° C. before stimulating with LPS.
The mixture was shaken and incubated the plates at 37° C. for an additional 18 hours.
155 μl of the supernatant was harvested from each well carefully (without the tip touching the bottom of the well) and to the remaining 50 μl/well of the cell culture plate was added 50 μl of Cell Titer Glo reagent. The mixture was incubated for 1-2 minutes on a shaker and the plate was read for luminescence intensity to determine the compound cytotoxicity. The cell culture supernatant collected above was used to carry out IL23 ELISA (65 μl—Supernatant) and IL10 ELISA (90 μl—Supernatant) as described below.
Human IL-23 (p19/p40) ELISA Protocol (e-Biosciences)
To 10.5 ml PBS add 50 μl of anti-IL23 (p19) was added capture antibody (2.5 μg/ml). The mixture was mixed well and 100 μl of the coating solution was added to each well of the 96 well white plates from Pierce. The wells were covered and incubated overnight at 4° C.
The anti-IL23 (p19)-antibody-coated plates were washed 2× using TBST (use plate washer) and blocked using 200 μl of 0.5% Casein for 1.5-2 hours at room temperature with shaking.
Addition of Supernatant and Detection:
The plates were washed 2× using TBST and the supernatant was transferred (65 μl/well) to the above pre-blocked/IL23(p19)-antibody-coated 96 well plate, and incubated at room temperature for 1.5 hours with shaking.
The plates were washed 4× using TBST (plate washer) and 100 μl/well detection antibody solution prepared from 2 μl of biotin labeled anti-IL-12 (p40/p70) antibody in 11 ml 1% BSA/PBS solution (1-5000 dilution) was added. The plates were incubated for 1 hour with shaking at Room temperature.
Again, the plates were washed 4× with TBST and 100 μl of HRP labeled Streptavidin (R&D Systems) solution (10 μl/10 ml 1% BSA solution) was added, and the plates were incubated at room temperature for another 45 minutes with shaking.
After 45 minutes, the plates were washed with TBST 4× and 100 μl/well Super Signal ELISA Pico Chemiluminescent Substrate from Pierce (3.5 ml A+3.5 ml B+3.5 ml MQ water) was added. The plates were shaken for 1-2 minutes then read on a plate reader.

Compound	EC50 [1] [nM]	EC50 [2] [nM]
COCCOCCn1cc(NC(=O)c2cccc(-c3cn[nH]c3)n2)c(-c2ccccn2)n1 [Compound I-153, N-(1-(2-(2-methoxyethoxy)ethyl)-3-(pyridin-2-yl)-1H-pyrazol-4-yl)-6-(1H-pyrazol-4-yl)picolinamide formate]	463	628
Cn1cc(NC(=O)c2cccc(-c3cncc(N)c3)n2)c(-c2ccccn2)n1 [Compound I-25, 5′-amino-N-(1-methyl-3-(pyridin-2-yl)-1H-pyrazol-4-yl)-[2,3′-bipyridine]-6-carboxamide]	169	34.7
Cc1cc(-c2cccc(C(=O)Nc3cn(C)nc3-c3ccccn3)n2)[nH]n1 [Compound I-7, 6-(3-methyl-1H-pyrazol-5-yl)-N-(1-methyl-3-(pyridin-2-yl)-1H-pyrazol-4-yl)picolinamide]	533	354
COCCOCCn1cc(NC(=O)c2cccc(-c3ccnc(OC)c3)n2)c(-c2ccccn2)n1 [Compound I-141, 2′-methoxy-N-(1-(2-(2-methoxyethoxy)ethyl)-3-(pyridin-2-yl)-1H-pyrazol-4-yl)-[2,4′-bipyridine]-6-carboxamide formate]	8430	2840
CN(C)c1cncc(-c2cccc(C(=O)Nc3cn(C)nc3-c3ccccn3)n2)c1 [Compound I-35, 5′-(dimethylamino)-N-(1-methyl-3-(pyridin-2-yl)-1H-pyrazol-4-yl)-[2,3′-bipyridine]-6-carboxamide]	1110	878
CCO[C@H]1CC[C@H](n2cc(NC(=O)c3cccc(-c4cn[nH]c4)n3)c(-c3ncc(F)cc3F)n2)CC1 [Compound I-184, N-(3-(3,5-difluoropyridin-2-yl)-1-(trans-4-ethoxycyclohexyl)-1H-pyrazol-4-yl)-6-(1H-pyrazol-4-yl)picolinamide]	328	8250
Cn1cc(NC(=O)c2cccc(-c3cccnc3)n2)c(-c2cnccn2)n1 [Compound I-101, N-(1-methyl-3-(pyrazin-2-yl)-1H-pyrazol-4-yl)-[2,3′-bipyridine]-6-carboxamide]	14500	1830
COc1ccc(-c2nn(C)cc2NC(=O)c2cccc(-c3ccn[nH]3)n2)nc1 [Compound I-67, N-(3-(5-methoxypyridin-2-yl)-1-methyl-1H-pyrazol-4-yl)-6-(1H-pyrazol-5-yl)picolinamide]	483	2680
CNc1cncc(-c2cccc(C(=O)Nc3cn(C)nc3-c3ccccn3)n2)c1 [Compound I-26, N-(1-methyl-3-(pyridin-2-yl)-1H-pyrazol-4-yl)-5′-(methylamino)-[2,3′-bipyridine]-6-carboxamide]	2870	204
COCCOCCn1cc(NC(=O)c2cccc(-c3ccc(N)nc3)n2)c(-c2ccccn2)n1 [Compound I-142, 6′-amino-N-(1-(2-(2-methoxyethoxy)ethyl)-3-(pyridin-2-yl)-1H-pyrazol-4-yl)-[2,3′-bipyridine]-6-carboxamide formate]	761	2540
COc1ccc(-c2cccc(C(=O)Nc3cn(C)nc3-c3ccccn3)n2)cc1 [Compound I-52, 6-(4-methoxyphenyl)-N-(1-methyl-3-(pyridin-2-yl)-1H-pyrazol-4-yl)picolinamide]	4480	1110
Cc1cncc(-c2cccc(C(=O)Nc3cn(C)nc3-c3ccc(N4CCN(C)CC4)cn3)n2)c1 [Compound I-177, 5′-methyl-N-(1-methyl-3-(5-(4-methylpiperazin-1-yl)pyridin-2-yl)-1H-pyrazol-4-yl)-[2,3′-bipyridine]-6-carboxamide dihydrochloride]	21700	12200
Cn1cc(NC(=O)c2cccc(-c3ccnc(NCC(F)(F)F)c3)n2)c(-c2ccccn2)n1 [Compound I-161, N-(1-methyl-3-(pyridin-2-yl)-1H-pyrazol-4-yl)-2′-((2,2,2-trifluoroethyl)amino)-[2,4′-bipyridine]-6-carboxamide formate]	7520	4200
O=C(Nc1cn(CCO)nc1-c1ccccn1)c1cccc(-c2ccncc2)n1 [Compound I-108, N-(1-(2-hydroxyethyl)-3-(pyridin-2-yl)-1H-pyrazol-4-yl)-[2,4′-bipyridine]-6-carboxamide formate]	5960	4920
CC(C)Nc1cncc(-c2cccc(C(=O)Nc3cn(C)nc3-c3ccccn3)n2)c1 [Compound I-28, 5′-(isopropylamino)-N-(1-methyl-3-(pyridin-2-yl)-1H-pyrazol-4-yl)-[2,3′-bipyridine]-6-carboxamide]	1450	546
COC1CC(n2cc(NC(=O)c3cccc(-c4cncc(C)c4)n3)c(-c3ccccn3)n2)C1 (stereo not drawn) [Compound I-162, N-(1-(3-methoxycyclobutyl)-3-(pyridin-2-yl)-1H-pyrazol-4-yl)-5′-methyl-[2,3′-bipyridine]-6-carboxamide formate]	499	167
Cn1cc(NC(=O)c2cccc(-c3cc[nH]n3)n2)c(-c2ccc(OC3COC3)cn2)n1 [Compound I-183, N-(1-methyl-3-(5-(oxetan-3-yloxy)pyridin-2-yl)-1H-pyrazol-4-yl)-6-(1H-pyrazol-3-yl)picolinamide]	96.1	216
O=C(Nc1cn(C2COC2)nc1-c1ccccn1)c1cccc(-c2cccnc2)n1 [Compound I-112, N-(1-(oxetan-3-yl)-3-(pyridin-2-yl)-1H-pyrazol-4-yl)-[2,3′-bipyridine]-6-carboxamide]	325	1280
Cc1n[nH]cc1-c1cccc(C(=O)Nc2cn(C)nc2-c2ccccn2)n1 [Compound I-78, 6-(3-methyl-1H-pyrazol-4-yl)-N-(1-methyl-3-(pyridin-2-yl)-1H-pyrazol-4-yl)picolinamide]	643	832
Cn1cc(NC(=O)c2cccc(-c3ccc(N)nc3)n2)c(-c2ccccn2)n1 [Compound I-43, 6′-amino-N-(1-methyl-3-(pyridin-2-yl)-1H-pyrazol-4-yl)-[2,3′-bipyridine]-6-carboxamide]	1320	1460
O=C(Nc1cn(C2COC2)nc1-c1ccccn1)c1cccc(-c2cn[nH]c2)n1 [Compound I-116, N-(1-(oxetan-3-yl)-3-(pyridin-2-yl)-1H-pyrazol-4-yl)-6-(1H-pyrazol-4-yl)picolinamide]	212	142
COCCOCCn1cc(NC(=O)c2cccc(Nc3ccc4n[nH]cc4c3)n2)c(-c2ccccn2)n1 [Compound I-155, 6-((2H-indazol-5-yl)amino)-N-(1-(2-(2-methoxyethoxy)ethyl)-3-(pyridin-2-yl)-1H-pyrazol-4-yl)picolinamide formate]	6160	2410
Cc1cncc(-c2cccc(C(=O)Nc3cn(C)nc3-c3ccccn3)n2)c1 [Compound I-12, 5′-methyl-N-(1-methyl-3-(pyridin-2-yl)-1H-pyrazol-4-yl)-[2,3′-bipyridine]-6-carboxamide]	250	106
CS(=O)(=O)Nc1cncc(-c2cccc(C(=O)Nc3cn(C4COC4)nc3-c3ccccn3)n2)c1 [Compound I-115, 5′-(methylsulfonamido)-N-(1-(oxetan-3-yl)-3-(pyridin-2-yl)-1H-pyrazol-4-yl)-[2,3′-bipyridine]-6-carboxamide]	2180	7650
